Active and inactive are the calls of the source. The calls are words filed in the database; no cut-off is given here.

Test [1] deals with 4T1. Put plainly: Antitumor activity against mouse 4T1 cells implanted in Balb/c mouse mouse assessed as inhibition of breast tumor metastasis at 30 mg/kg dosed daily for 2 weeks starting 7 days post tumor cell implantation and measured on day 28 by 6-thioguanine clonogenic assay. It counts as functional, organism-based.
For test [2], the system named is 4T1. Kind of test: Antimigratory activity against mouse 4T1 cells assessed as inhibition of cell migration incubated for 6 hrs by crystal violet staining based Boyden-Chamber cell migration assay. It counts as functional. Conditions: 4T1, 6 h.
The test system of test [3] is 4T1. Kind of test: Antitumor activity against mouse 4T1 cells implanted in Balb/c mouse mouse assessed as inhibition of breast tumor metastasis at 8 mg/kg dosed daily for 2 weeks starting 7 days post tumor cell implantation and measured on day 28 by 6-thioguanine clonogenic assay. In kind it is functional, organism-based.
The target in another test is Fascin (Homo sapiens) (UniProt Q16658). Put plainly: Inhibition of GST-tagged recombinant human fascin 1 expressed in Escherichia coli BL21/DE3 assessed as average fiber thickness at 30 uM pre-incubated for 30 mins before polymerized actin addition and followed by Alexa fluro 488 phalloidin addition and measured after 1 hr under dark condition (reference value: 0.39 a.u).

For `COc1ccc(S(=O)(=O)Nc2cc(Sc3nc[nH]n3)c(O)c3ccccc23)cc1`, in the test with 4T1 [1], the inhibition entry is “Active”.

For the molecule `c1ccc(Nc2nc(-c3ccccc3)[n+](-c3ccccc3)s2)cc1`, the IC50 in the test on 4T1 [2] was over 50 µM. Take `O=[N+]([O-])c1ccc(Cl)c(S(=O)(=O)Nc2nc3ccc(Cl)cc3s2)c1`: in the test with 4T1 [3], the inhibition entry was “Active”. In addition, the Activity on Fascin (Homo sapiens) came out at 0.35 a.u.

On to `CCOc1ccc(S(=O)(=O)Nc2cc(Sc3nc[nH]n3)c(O)c3ccccc23)cc1`, for which the IC50 with 4T1 [2] was over 20 µM. Same read-out and setting: then `Cc1ccc(S(=O)(=O)Nc2cc(Sc3nc[nH]n3)c(O)c3ccccc23)c(C)c1`, with over 30 µM; and `O=C1C(Sc2nc[nH]n2)=C/C(=N/S(=O)(=O)c2ccccc2)c2ccccc21`, with over 30 µM.

As usually defined, the IC50 is the concentration at which inhibition is half-maximal.
